Assay results: patent publication US20220106304A1, “Transcription Factor BRN2 Inhibitory Compounds as Therapeutics and Methods for Their Use” (The University of British Columbia, priority 2018, published 2022)

Experiments:
[1] = Liver microsome metabolic stability, MLM; format: in vitro ADME; conditions: MLM (single value or second of two), 1 μM compound, 0.25 mg/mL protein; for Met Stab % (60 mins HLM/MLM): percent remaining at 60 min, 1 mM NADPH; for half-life at 1 µM: mouse, liver microsomes, pH 7.4, read-out: T1/2 in (mins HLM/MLM)
Description: Potassium phosphate buffer (Kphos) was prepared by adding 0.647 g potassium phosphate monobasic (KH2PO4) and 3.527 g potassium phosphate dibasic ([…]) to 400 mL of Milli-Q water. pH of the buffer was adjusted to 7.4 and volume was made up to 500 mL.
Microsomes (20 mg/mL) were diluted in KH2PO4 buffer to prepare a concentration of 0.357 mg/mL.
Stock solutions of BRN2 inhibitors were prepared in DMSO at a concentration of 1 mM
A stock solution of 3.33 mM NADPH (3.33×) was prepared by dissolving appropriate amount of NADPH in KH2PO4 buffer.
Total Incubation volume: 100 μL
Compound concentration: 1 μM
Protein Concentration: 0.25 mg/mL
An 1120 μL aliquot of Kphos buffer (50 mM, pH 7.4) containing liver microsomes (0.357 mg/mL) were added to individual 2 mL tubes (final concentration 0.25 mg/mL). Test compounds (1 mM) and positive controls were directly spiked into respective tubes to prepare a concentration of 1.428 μM (final concentration 1 μM). From the above mix, 70 μL was added to individual wells of 96 well reaction plates and pre-incubated in a 37° C. water bath for 5 min. All the reactions were initiated by adding 30 μL of 3.33 mM NADPH (final concentration 1 mM). Reactions without NADPH and buffer controls (minus NADPH) at 0 min and 60 min were also incubated to rule out non-NADPH metabolism or chemical instability in the incubation buffer. All reactions were terminated using 100 μL of ice-cold acetonitrile containing internal standard at 0, 5, 15, 30 and 60 min. The plates were centrifuged at 4000 RPM for 15 min and 100 μL aliquots were submitted for analysis by LC-MS/MS.
Samples were monitored for parent compounds disappearance in MRM mode using LC-MS/MS.
The percent remaining of test compounds and positive control in each sample was determined by considering peak area ratio in the 0 minute sample as 100%. The Half-life of compounds in microsomes is calculated by formula:
Half-life (t½) (min)=0.693/k, where k is gradient of line determined from plot of peak area ratio (compound peak area/internal standard peak area) against time.
In vitro intrinsic clearance (CL'int) (units in mL/min/kg) was calculated using the formula.
[formula] • For liver microsomes, scaling factor used was 45 mg microsomal protein per gm liver. • Indicates liver weight (gm) which varies species wise. For mice the liver weights are 90 gm.
Where data is not available “na” is inserted.

[2] = target: T1, BRN2 (Homo sapiens, UniProt P20265); assay: cell-based; conditions: negative = activation; for inhibition at 10 µM: read-out: % BRN2 Inhibition (10 μM), 10 μM compound, 24 hours, 42D^ENZR cells stably expressing BRN2-luciferase reporter; for inhibition at 30 µM: read-out: % BRN2 Inhibition (30 μM), 30 μM compound, 24 hours, 42D^ENZR cells stably expressing BRN2-luciferase reporter
T1 sequence (P20265 1-443): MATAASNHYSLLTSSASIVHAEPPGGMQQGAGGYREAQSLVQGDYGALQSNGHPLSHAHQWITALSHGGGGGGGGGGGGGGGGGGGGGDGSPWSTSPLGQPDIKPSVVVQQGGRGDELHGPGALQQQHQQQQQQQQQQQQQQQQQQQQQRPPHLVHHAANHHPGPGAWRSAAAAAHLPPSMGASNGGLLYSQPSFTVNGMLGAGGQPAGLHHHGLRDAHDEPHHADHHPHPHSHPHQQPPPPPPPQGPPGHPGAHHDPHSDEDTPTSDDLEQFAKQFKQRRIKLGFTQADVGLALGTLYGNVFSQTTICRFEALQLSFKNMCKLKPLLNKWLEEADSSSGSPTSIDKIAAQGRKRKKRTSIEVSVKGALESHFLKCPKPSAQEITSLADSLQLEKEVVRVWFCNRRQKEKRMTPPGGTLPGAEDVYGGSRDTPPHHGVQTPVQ
Text: Decreased expression of luciferase protein is validated via western blot to confirm downregulation and avoid false positive molecules that inhibit luciferase protein activity and not BRN2-drive luciferase expression. Molecules are prioritized by their inhibition potency to measure direct interaction with BRN2 in Step 2.
In TABLES 1 and 2, when a single value is mentioned in columns Met Stab % and T½, it refers to compound's stability in MLM and when two values are given they represent HLM/MLM. There is a distinction in TABLES 1 and 2 difference between “Active” and “Specific” or “Specificity”. Compounds are first tested to quantify inhibition of BRN2 transcriptional activity in a luciferase assay to determine “Activity” at […] and 30 μM concentrations. […] Where data is not available “na” is inserted. Where data has yet to be calculated the notation “nc” is used.

Compound	Met Stab % (60 mins HLM/MLM) [1] [%]	half-life at 1 µM [1] [min]	inhibition at 10 µM [2] [%]	inhibition at 30 µM [2] [%]
Clc1ccc2nc(-c3ccc(-c4ccccc4)o3)[nH]c2c1 [VPC-18-92, 6-chloro-2-(5-phenylfuran-2-yl)-1H-benzo[d]imidazole]	0	6	83	98.4
FC(F)(F)c1ccc2cc(-c3csc(NCC4CC4)n3)oc2c1 [VPC-18-86]	5	13	32	92
Cc1c(-c2ccc(-c3ccccc3)o2)oc2ccccc12 [VPC-18-74, 3-methyl-2-(5-phenylfuran-2-yl)benzofuran]	2	11	96.7	99
Clc1ccc2cc(-c3cccc(-c4ccc[nH]4)c3)oc2c1 [VPC-18-153]	2	11		
N#Cc1c(-c2csc(-c3ccco3)n2)oc2ccccc12 [VPC-18-88, 2-(2-(furan-2-yl)thiazol-4-yl)benzofuran-3-carbonitrile]	0	9	76	96
CN1CCN(c2ccc(-c3nc4ccc(C(F)(F)F)cc4n3C)o2)CC1 [VPC-18-102]	0	7	22.6	55.5
c1ccc2c(-c3cnc(-c4ccoc4)s3)coc2c1 [VPC-18-112]	1	9	41.8	81.6
Clc1ccc2cc(-c3csc(N4CC5CC4CO5)n3)oc2c1 (centres unmarked) [VPC-18-91, 5-(4-(6-chlorobenzofuran-2-yl)thiazol-2-yl)-2-oxa-5-azabicyclo[2.2.1]heptane]	2	11	70	96
FC(F)(F)c1ccc2cc(-c3csc(-c4ncco4)n3)oc2c1 [VPC-18-98, 2-(4-(6-(trifluoromethyl)benzofuran-2-yl)thiazol-2-yl)oxazole]	53	> 60	84	86
FC(F)(F)n1c(-c2ccc(-c3ccccc3)o2)nc2ccccc21 [VPC-18-103]	0	9	88.5	95.3
FC(F)(F)c1ccc2cc(-c3csc(-c4cocn4)n3)oc2c1 [VPC-18-106]	7	16	90.6	90
Cn1c(-c2ccc(C3CCNCC3)o2)nc2ccc(C(F)(F)F)cc21 [VPC-18-82]	100	> 60	11	50
FC(F)(F)c1ccc2cc(-c3csc(NC4CC4)n3)oc2c1 [VPC-18-73, N-cyclopropyl-4-(6-(trifluoromethyl)benzofuran-2-yl)thiazol-2-amine]	2	11	78.8	95.7
Fc1sc(-c2ccco2)nc1-c1cc2ccc(C(F)(F)F)cc2o1 [VPC-18-100]	1	10	8.8	56.3
Oc1ccc2cc(-c3csc(-c4ccco4)n3)oc2c1 [VPC-18-113]	3	12	94	94
Clc1ccc2cc(-c3csc(C4CCCO4)n3)oc2c1 (centres unmarked) [VPC-18-114]	14	25	92	95
Clc1ccc2cc(-c3cncc(-c4ccc[nH]4)n3)oc2c1 [VPC-18-130]	1	9		
FC(F)(F)c1ccc2nc(-c3csc(C4=CCOCC4)n3)oc2c1 [VPC-18-77]	24	29	11.3	63.4
FC(F)(F)c1ccc2cc(-c3csc(N4CCOCC4)n3)oc2c1 [VPC-18-78, 4-(4-(6-(trifluoromethyl)benzofuran-2-yl)thiazol-2-yl)morpholine]	25	30	43.6	79.6
FC(F)(F)c1ccc2cc(-c3coc(-c4ccco4)n3)oc2c1 [VPC-18-120]	6	13	88.9	88.8
c1coc(-c2nc(-c3cc4ncccc4o3)cs2)c1 [VPC-18-75, 2-(2-(furan-2-yl)thiazol-4-yl)furo[3,2-b]pyridine]	0		71.9	91.9
Fc1ccc(-c2nc(-c3nc4ccc(C(F)(F)F)cc4o3)cs2)o1 [VPC-18-93]	26	34	-9.9	30.2
FC(F)(F)c1ccc2cc(-c3csc(C4CCNCC4)n3)oc2c1 [VPC-18-89, 2-(piperidin-4-yl)-4-(6-(trifluoromethyl)benzofuran-2-yl)thiazole]	65	> 60	65	98
O=C1CCN(c2nc(-c3cc4ccc(Cl)cc4o3)cs2)C1 [VPC-18-109]	4	13	81.7	91.5
Fc1c(Cl)ccc2cc(-c3csc(-c4ccc[nH]4)n3)oc12 [VPC-18-166]	1	10		
Cn1c(-c2ccc(-c3cccc(C#N)c3)o2)nc2ccccc21 [VPC-18-63, 3-(5-(1-methyl-1H-benzo[d]imidazol-2-yl)furan-2-yl)benzonitrile]	0		72	94
FC(F)(F)c1ccc2cc(-c3csc(N4CCCC4)n3)oc2c1 [VPC-18-72, 2-(pyrrolidin-1-yl)-4-(6-(trifluoromethyl)benzofuran-2-yl)thiazole]	8	18	45.9	62.4
Clc1ccc2cc(-c3csc(-c4ncco4)n3)oc2c1 [VPC-18-99]	28	36	29.3	39.2
FC(F)(F)c1ccc2nc(-c3ccc(-c4ccccc4)o3)[nH]c2c1 [VPC-18-87]	37	40	85	87
Clc1ccc2cc(-c3csc(-c4nccs4)n3)oc2c1 [VPC-18-165]	6	16		
